The record followed here is patent US10941137B2, “Difluoromethyl-phenyl triazoles” (Boehringer Ingelheim International GmbH, priority 2018, dated 2021).

pKi: −log10 of the molar value.

This assay has as its target T1, human GABAA α5β3γ2s receptor (Homo sapiens, UniProt P18507+P31644).
T1 sequence (P18507 1-475): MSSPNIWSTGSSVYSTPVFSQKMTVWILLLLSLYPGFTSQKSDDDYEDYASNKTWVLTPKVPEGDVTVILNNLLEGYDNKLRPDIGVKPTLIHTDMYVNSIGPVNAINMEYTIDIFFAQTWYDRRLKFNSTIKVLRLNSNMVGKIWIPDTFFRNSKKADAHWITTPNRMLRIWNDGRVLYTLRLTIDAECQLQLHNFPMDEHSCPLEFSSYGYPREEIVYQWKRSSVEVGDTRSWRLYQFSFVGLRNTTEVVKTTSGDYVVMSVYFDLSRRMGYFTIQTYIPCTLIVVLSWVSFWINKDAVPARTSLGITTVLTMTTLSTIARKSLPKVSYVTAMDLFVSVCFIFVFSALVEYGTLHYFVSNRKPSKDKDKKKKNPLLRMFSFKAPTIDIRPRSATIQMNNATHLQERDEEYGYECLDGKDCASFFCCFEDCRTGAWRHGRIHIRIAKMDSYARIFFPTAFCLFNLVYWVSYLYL
T1 sequence (P31644 1-462): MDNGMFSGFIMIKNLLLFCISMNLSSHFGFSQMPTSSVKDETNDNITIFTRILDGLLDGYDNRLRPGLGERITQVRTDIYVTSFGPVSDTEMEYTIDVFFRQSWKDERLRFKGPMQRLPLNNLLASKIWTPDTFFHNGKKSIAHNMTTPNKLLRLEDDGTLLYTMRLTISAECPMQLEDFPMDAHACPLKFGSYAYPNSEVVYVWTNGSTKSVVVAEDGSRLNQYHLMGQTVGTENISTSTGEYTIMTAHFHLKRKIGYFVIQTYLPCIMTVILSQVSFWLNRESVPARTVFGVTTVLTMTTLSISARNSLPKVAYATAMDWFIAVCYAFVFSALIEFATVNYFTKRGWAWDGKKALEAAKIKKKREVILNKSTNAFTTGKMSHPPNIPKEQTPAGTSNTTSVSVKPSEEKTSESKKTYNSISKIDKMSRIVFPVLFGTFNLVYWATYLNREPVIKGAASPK
Briefly: Assay A: in vitro inhibition of 3H-flumazenil binding, HEK cells expressing human GABAA α5β3γ2s receptor. As to conditions: 3H-flumazenil 1 nM, HEK-293 membranes, 40 min at 2° C.; Ki from IC50 by Cheng and Prusoff. On the procedure:
HEK-293 cell lines with stable expression of recombinant human GABAA α5β3γ2s receptors (plasmid H46/E9/B10) are seeded in T175 polystyrene flasks or roller bottles (1700 cm^2, Fisher Scientific CCI-431191), and cultured (37 C, 5% CO˜) in Dulbecco's Modified Eagle Medium (DMEM) with GlutaMAX™ supplemented with 10% fetal bovine serum and one or both of the following antibiotics: hygromycin B ([…]; γ2 subunit) or G418 (0.5 mg/ml; […]).
When the cultures reach confluency, the DMEM is removed and the cells are washed (10 ml for T175 flasks; 50 ml for roller bottles) once in Dulbecco's Phosphate Buffered Saline (DPBS). Following addition of DPBS to the cultures (10 ml for T175 flasks; 100 ml for roller bottles) for approximately 5 min cells are easily detached from the surface by shaking or tapping the flask gently. The cell suspension is transferred to Falcon tubes and centrifuged at 23,500×g for 10 min at 2° C. The pellet is washed once in 15 ml Tris-citrate buffer (50 mM, pH 7.1) using an Ultra-Turrax homogenizer and centrifuged at 2° C. for 10 min at 27,000×g. The washed pellet is re-suspended in 15 ml Tris-citrate buffer and frozen at −80° C. until the day of the binding experiment.
On the day of the experiment the cell membrane preparation is thawed and centrifuged at 2° C. for 10 min at 27,000×g. The pellet is re-suspended, using an Ultra-Turrax homogenizer in Tris-citrate buffer, to 15-50 µg protein per assay and then used for binding assays.
Non-specific binding is determined using clonazepam (1 μM, final concentration).
All dilutions of test compounds and incubation of assay are performed in glass vials/96-vial plates. […] Compounds are dissolved in 100% DMSO (10 mM stock), diluted in 48% ethanol-water, and tested in triplicate in serial 1:3 or 1:10 dilutions. When screening large numbers of compounds only one concentration of each compound is tested in single wells. Reference compounds are not included routinely, but for each experiment performed total and nonspecific binding is compared to data obtained during validation of the assay.
Binding is either terminated by rapid filtration onto
1) Whatman GF/C glass fibre filters using a Brandel Cell harvester, followed by 5 washes with 1 ml ice-cold buffer or onto 2) UniFilter GF/C glass fibre filter plates using a Tomtec cell harvester, followed by washing with approximately 5 ml ice-cold buffer.
The amount of radioactivity on the filters is determined by conventional liquid scintillation counting using a
1) Tri-Garb™ counter (PerkinElmer Life and Analytical Sciences) for separate large filters or
2) Topcount™ counter (PerkinElmer Life and Analytical Sciences) for 96-well filter plates. Specific binding is total binding minus non-specific binding.
For screening purposes n is set to 1. The IC50 value is calculated from the concentration response curves by the non-linear regression method using the curve-fitting program GraphPad Prism. […]
As a reminder, the pKi is the negative decadic logarithm of the Ki, by convention in mol/L. Read a high pKi as a small Ki. In turn, `Cc1nnn(-c2ccc(C(F)F)cc2)c1COc1ccc(-c2ccnc(O)c2)nn1` [Example 2, 4-[6-({1-[4-(difluoromethyl)phenyl]-4-methyl-1H-1,2,3-triazol-5-yl}methoxy)pyridazin-3-yl]pyridin-2-ol] had a pKi of 10.07.
`COc1ncc(-c2ccc(OCc3c(C)nnn3-c3ccc(C(F)F)cc3)nn2)cn1` [Example 3] had a pKi of 9.80.
The same measure for `Cc1nnn(-c2ccc(C(F)F)cc2)c1COc1ccc(-c2cnc(OCC(C)(C)O)nc2)nn1` [Example 4]: 9.06; for `Cc1nnn(-c2ccc(C(F)F)cc2)c1COc1ccc(-c2cnn(C)c2)nn1` [Example 5]: 9.96; for `Cc1ncc(-c2ccc(OCc3c(C)nnn3-c3ccc(C(F)F)cc3)nn2)o1` [Example 6]: 9.96.
`CCn1cc(-c2ccc(OCc3c(C)nnn3-c3ccc(C(F)F)cc3)nn2)cn1` [Example 7] had a pKi of 10.49.
The result for `Cc1nnn(-c2ccc(C(F)F)cc2)c1COc1ccc(-c2cncc(-n3ccnc3)c2)nn1` [Example 8] reads 10.26.
`Cc1nnn(-c2ccc(C(F)F)cc2)c1COc1ccc(-c2cnn(C3CC3)c2)nn1` [Example 9] had a pKi of 9.60.
The same measure for `Cc1cc(-c2ccc(OCc3c(C)nnn3-c3ccc(C(F)F)cc3)nn2)cnn1` [Example 11]: 10.24; for `Cc1n[nH]c(C)c1-c1ccc(OCc2c(C)nnn2-c2ccc(C(F)F)cc2)nn1` [Example 12, 3-({1-[4-(difluoromethyl)phenyl]-4-methyl-1H-1,2,3-triazol-5-yl}methoxy)-6-(3,5-dimethyl-1H-pyrazol-4-yl)pyridazine]: 9.05; for `CNC(=O)c1cn(-c2ccc(OCc3c(C)nnn3-c3ccc(C(F)F)cc3)nn2)cn1` [Example 14]: 10.15.
The result for `Cc1nnn(-c2ccc(C(F)F)cc2)c1COc1ccc(-n2cnc(C(F)F)c2)nn1` [Example 15] reads 9.96.
With `Cc1nnn(-c2ccc(C(F)F)cc2)c1COc1ccc(-n2cnc(C=O)c2)nn1` [Example 17], the pKi was 10.05.
The same measure for `Cc1nnn(-c2ccc(C(F)F)cc2)c1COc1ccc(-n2cnc(Cl)c2)nn1` [Example 18]: 10.25; for `Cc1nnn(-c2ccc(C(F)F)cc2)c1COc1ccc(-n2cnc(S(C)(=O)=O)c2)nn1` [Example 19]: 9.42; for `Cc1nnn(-c2ccc(C(F)F)cc2)c1COc1ccc(-n2ccc(C#N)n2)nn1` [Example 20]: 11.05.
Consider `Cc1nnn(-c2ccc(C(F)F)cc2)c1COc1ccc(-n2ccc(C(N)=O)n2)nn1` [Example 21], for which the pKi is 10.33.
The result for `Cc1nnn(-c2ccc(C(F)F)cc2)c1COc1ccc(-c2cncnc2)nn1` [Example 22] reads 9.96.
The same measure for `Cc1nnn(-c2ccc(C(F)F)cc2)c1COc1ccc(-n2ccc(C(F)(F)F)n2)nn1` [Example 24]: 9.60.
The same measure for `Cc1nnn(-c2ccc(C(F)F)cc2)c1COc1ccc(-n2cc(C(F)(F)F)cn2)nn1` [Example 25]: 9.46; for `Cc1nnn(-c2ccc(C(F)F)cc2)c1COc1ccc(-n2cc3c(n2)CCNC3=O)nn1` [Example 26]: 9.92; for `Cc1nnn(-c2ccc(C(F)F)cc2)c1COc1ccc(-n2cnc(C(N)=O)c2)nn1` [Example 27, 1-[6-({1-[4-(difluoromethyl)phenyl]-4-methyl-1H-1,2,3-triazol-5-yl}methoxy)pyridazin-3-yl]-1H-imidazole-4-carboxamide]: 10.44.
In turn, `COC(=O)c1cn(-c2ccc(OCc3c(C)nnn3-c3ccc(C(F)F)cc3)nn2)cn1` [Example 29] showed a negative-log Ki (pKi) of 10.20.
The same measure for `Cc1nnn(-c2ccc(C(F)F)cc2)c1COc1ccc(-n2cc(C#N)cn2)nn1` [Example 31]: 9.68; for `CC(=O)c1cn(-c2ccc(OCc3c(C)nnn3-c3ccc(C(F)F)cc3)nn2)cn1` [Example 32]: 10.41.
The result for `Cc1ncn(-c2ccc(OCc3c(C)nnn3-c3ccc(C(F)F)cc3)nn2)n1` [Example 33] reads 9.79.
The same measure for `Cc1nnn(-c2ccc(C(F)F)cc2)c1COc1ccc(-n2cnc(CN)c2)nn1` [Example 35, {1-[6-({1-[4-(difluoromethyl)phenyl]-4-methyl-1H-1,2,3-triazol-5-yl}methoxy)pyridazin-3-yl]-1H-imidazol-4-yl}methanamine]: 10.24; for `Cc1nnn(-c2ccc(C(F)F)cc2)c1COc1ccc(-n2cnc(C[N+](C)(C)C)c2)nn1.O=C([O-])C(F)(F)F` [Example 36, ({1-[6-({1-[4-(difluoromethyl)phenyl]-4-methyl-1H-1,2,3-triazol-5-yl}methoxy)pyridazin-3-yl]-1H-imidazol-4-yl}methyl)trimethylazanium trifluoroacetate]: 9.92; for `Cc1nnn(-c2ccc(C(F)F)cc2)c1COc1ccc(-n2cnc(C(=O)O)c2)nn1` [Example 37, 1-[6-({1-[4-(difluoromethyl)phenyl]-4-methyl-1H-1,2,3-triazol-5-yl}methoxy)pyridazin-3-yl]-1H-imidazole-4-carboxylic acid]: 9.09.
Regarding `Cc1nnn(-c2ccc(C(F)F)cc2)c1COc1ccc(-n2cnc(CO)c2)nn1` [Example 38, {1-[6-({1-[4-(difluoromethyl)phenyl]-4-methyl-1H-1,2,3-triazol-5-yl}methoxy)pyridazin-3-yl]-1H-imidazol-4-yl}methanol], the pKi was 9.70.
The molecule `Cc1nnn(-c2ccc(C(F)F)cc2)c1COc1ccc(-n2cnc(C(C)(C)O)c2)nn1` [Example 39, 2-{1-[6-({1-[4-(difluoromethyl)phenyl]-4-methyl-1H-1,2,3-triazol-5-yl}methoxy)pyridazin-3-yl]-1H-imidazol-4-yl}propan-2-ol] showed a pKi of 9.85.
The result for `Cc1nnn(-c2ccc(C(F)F)cc2)c1COc1ccc(-n2cnc(C(C)O)c2)nn1` (centres unmarked) [Example 40] reads 9.80.
